The results in this text go back to US12343400B2, “Brain tumor-targeting peptide and application thereof” (priority 2018, dated 2025).

Where a SMILES comes first, the peptide text is derived from it. Bridges are numbered along the chain shown (N, C = ends). Where no end group is shown, it is not given here. The star is where a group is joined. Paclitaxel(2'-O-succinyl) = CC(=O)O[C@H]1C(=O)[C@@]2(C)[C@H]([C@H](OC(=O)c3ccccc3)[C@]3(O)C[C@H](OC(=O)[C@H](OC(=O)CCC(=O)*)[C@@H](NC(=O)c4ccccc4)c4ccccc4)C(C)=C1C3(C)C)[C@]1(OC(C)=O)CO[C@@H]1C[C@@H]2O

One data set has as its system U87MG brain glioma. As to the kind of experiment: Survival time of brain glioma model mice. In kind it is in vivo, nude mice. The settings on record: tail vein, equal dose. Here is the method: On the first day, 10^6 U87MG cells were inoculated at the right caudate nucleus of nude mice of 6-8 weeks old. Three days later, a solvent or equal dose of paclitaxel or PBL001 was administered via the tail vein, and the survival time of each group of mice was recorded, as shown in FIG. 13.

The test system of the next data set is U87 brain tumors. Conditions: mouse, in vivo.
Another data set has as its system u87 brain glioma. Description: Enrichment of fluorescent short peptides in brain and tumor of u87 brain glioma model mice. In kind it is in vivo, nude mice. How it is done:
u87 brain glioma cells were cultivated. When the cells grew to a sufficient amount, the cells were taken, 8-weeks old nude mice were selected, the brains were located, and 5× 10^5 cells were injected at the location for brain tumorigenesis. U87 tumorigenesis cell line is a cell line with luciferase gene transferred, and the mouse imager can be used to observe the tumorigenesis effect in real time.
After tumorigenesis of the tumor model mice became stable, 100 μl of solution of short peptides labeled with fluorescent molecules was injected into the tail veins. A short peptide Angiopep 2, which was from the Angiochem company and was reported in an article to be able to cross the blood-brain barrier, was selected as a reference control. It is currently reported that this short peptide has excellent applications in crossing the blood-brain barrier and targeting brain tumors. The negative control was fluorescent molecule cy5.5 of the same amount of fluorescence equivalent. After the tail vein injection, the small animal in vivo imaging system IVIS was used to check the brain fluorescence. 100 μl of 5 mg/ml luciferase reaction substrate was injected into the intraperitoneal cavity. After 5 minutes, the small animal imaging system was used to check the brain tumors.
The brains of the mice were taken and the fluorescence of the brains was compared.

Experimental for U87 brain tumors: Cyanine5.5 NHS ester labeling reagent of the Lumiprobe brand was used to fluorescently label each short peptide, and each short peptide was labeled with one fluorescent molecule. […] The fluorescence intensity per unit area was calculated for the brain tumor site and other brain sites respectively, and the enrichment factor of the corresponding polypeptide at the tumor site can be obtained by dividing the fluorescence intensity per unit area at the brain tumor site by the fluorescence intensity per unit area at other brain sites.

On to `CC[C@H](C)[C@H](NC(=O)CNC(=O)[C@H](CCCNC(=N)N)NC(=O)[C@H](CC(C)C)NC(=O)[C@H](Cc1ccccc1)NC(=O)[C@H](CC(N)=O)NC(=O)[C@H](CC(N)=O)NC(=O)[C@H](CCCNC(=N)N)NC(=O)[C@H](CCCCNC(=O)CCC(=O)O[C@@H](C(=O)O[C@H]1C[C@@]2(O)[C@@H](OC(=O)c3ccccc3)[C@@H]3[C@]4(OC(C)=O)CO[C@@H]4C[C@H](O)[C@@]3(C)C(=O)[C@H](OC(C)=O)C(=C1C)C2(C)C)[C@@H](NC(=O)c1ccccc1)c1ccccc1)NC(=O)[C@@H]1CCCN1C(=O)[C@H](CCCNC(=N)N)NC(=O)CNC(=O)CNC(=O)[C@H](Cc1ccc(O)cc1)NC(=O)[C@H](Cc1ccccc1)NC(=O)[C@@H](NC(=O)CCC(=O)O[C@@H](C(=O)O[C@H]1C[C@@]2(O)[C@@H](OC(=O)c3ccccc3)[C@@H]3[C@]4(OC(C)=O)CO[C@@H]4C[C@H](O)[C@@]3(C)C(=O)[C@H](OC(C)=O)C(=C1C)C2(C)C)[C@@H](NC(=O)c1ccccc1)c1ccccc1)[C@@H](C)O)C(=O)N[C@@H](CCCNC(=N)N)C(=O)N[C@@H](CO)C(=O)N[C@@H](CCCNC(=N)N)C(=O)NCC(=O)N[C@@H](CC(=O)O)C(=O)O` [PBL001] ({Paclitaxel(2'-O-succinyl)}-TFYGGRPK(Paclitaxel(2'-O-succinyl))RNNFLRGIRSRGD-OH), for which, in the data set with U87MG brain glioma, the “toxic and side effects compared with paclitaxel” value is “lower toxic and side effects”.

With `CC[C@H](C)[C@H](NC(=O)CNC(=O)[C@H](CCCNC(=N)N)NC(=O)[C@H](CC(C)C)NC(=O)[C@H](Cc1ccccc1)NC(=O)[C@H](CC(N)=O)NC(=O)[C@H](CC(N)=O)NC(=O)[C@H](CCCNC(=N)N)NC(=O)[C@H](CCCCN)NC(=O)[C@@H]1CCCN1C(=O)[C@H](CCCNC(=N)N)NC(=O)CNC(=O)CNC(=O)[C@H](Cc1ccc(O)cc1)NC(=O)[C@H](Cc1ccccc1)NC(=O)[C@@H](N)[C@@H](C)O)C(=O)N[C@@H](CCCNC(=N)N)C(=O)N[C@H]1CSSC[C@@H](C(=O)O)NC(=O)[C@H](CC(=O)O)NC(=O)[C@@H]2CCCN2C(=O)CNC(=O)[C@H](CCCCN)NC(=O)[C@H](CC(=O)O)NC(=O)CNC(=O)[C@H](CCCNC(=N)N)NC1=O` [SEQ ID NO:8] (H-TFYGGRPKRNNFLRGIRCRGDKGPDC-OH; disulfide 18-26; N-terminus and C-terminus assumed), the “tumor enrichment (enrichment factor tumor site / other brain sites) compared to SEQ ID NO:2 peptide” value in the data set on U87 brain tumors is “not as significant as the other three synthesized polypeptides”.

As for TFYGGRPKRNNFLRGIRSRGD [Pb001], the “brain fluorescence intensity relative to fluorescently labeled reference peptide Angiopep2” value in the data set on u87 brain glioma (brain glioma model mice (FIG. 6)) was 1.2 times. In addition, the “fluorescence accumulation in the brain tumor site” value in the data set on u87 brain glioma (brain glioma model mice (FIG. 7)) was “obvious fluorescence accumulation”. For the same compound, in the data set on u87 brain glioma (brain glioma model mice, tail vein injection, after perfusion (FIG. 5)), the “brain enrichment amount compared with fluorescently labeled reference peptide Angiopep2” value is “better than that of the fluorescently labeled reference peptide Angiopep2”.
